The assay has as its system LPS-challenged mice. Put plainly: LPS-induced mortality in mouse endotoxemia model. To be noted: 5 mg/kg retro-orbital prior to i.p. LPS; 10 mice/group; Kaplan-Meier. Format: in vivo, C57BL/6 mice.

For the substance Integrilin, the “LPS-induced mortality (Integrilin)” value is “showed a trend in reducing”.
